{"source": "patent US11053204B2", "about": "“Pyrimidinyloxy benzene derivatives as herbicides” (FMC Corporation, priority 2015, dated 2021)", "type_in_all_cases": "in vivo", "key": {"[1]": {"system": "galium (catchweed bedstraw, Galium aparine)", "experiment": "Test C preemergence, plant response rating"}, "[2]": {"system": "johnsongrass (Sorghum halepense)", "experiment": "Test C preemergence, plant response rating"}, "[3]": {"system": "barnyardgrass (Echinochloa crus-galli)", "experiment": "Test C preemergence, plant response rating", "conditions": "Echinochloa crus-galli, pre-emergence, Preemergence"}, "[4]": {"system": "pigweed, palmer (palmer pigweed, Amaranthus palmeri)", "experiment": "Test C preemergence, plant response rating"}, "[5]": {"system": "kochia (Kochia scoparia)", "experiment": "Test C preemergence, plant response rating"}, "[6]": {"system": "surinam grass (Brachiaria decumbens)", "experiment": "Test C preemergence, plant response rating"}, "[7]": {"system": "wild poinsettia (Euphorbia heterophylla)", "experiment": "Test C preemergence, plant response rating"}, "[8]": {"system": "windgrass (Apera spica-venti)", "experiment": "Test C preemergence, plant response rating"}, "[9]": {"system": "oat, wild (wild oat Avena fatua)", "experiment": "Test C preemergence, plant response rating"}, "[10]": {"system": "blackgrass (Alopecurus myosuroides)", "experiment": "Test C postemergence, plant response rating", "conditions": "Alopecurus myosuroides, post-emergence", "summary_of_the_method": "(§1)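 Visual injury score, 0 = no effect, 100 = complete control, assigned against untreated controls after 13 to 15 d in the greenhouse. Compounds were applied in a surfactant-containing non-phytotoxic solvent mix, preemergence to seeded loam/sand or silt loam soil, or postemergence to 1- to 4-leaf plants (2 to 18 cm).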"}, "[11]": {"system": "chickweed (common chickweed, Stellaria media)", "experiment": "Test C postemergence, plant response rating", "conditions": "Stellaria media, post-emergence", "summary_of_the_method": "as §1"}, "[12]": {"system": "lambsquarters (Chenopodium album)", "experiment": "Test C postemergence, plant response rating", "conditions": "Chenopodium album, post-emergence", "summary_of_the_method": "as §1"}, "[13]": {"system": "morningglory (Ipomoea coccinea)", "experiment": "Test C postemergence, plant response rating", "conditions": "Ipomoea, post-emergence", "summary_of_the_method": "as §1"}, "[14]": {"system": "nutsedge, yellow (yellow nutsedge, Cyperus esculentus)", "experiment": "Test C postemergence, plant response rating", "conditions": "Cyperus, post-emergence", "summary_of_the_method": "as §1"}, "[15]": {"system": "oat, wild (wild oat Avena fatua)", "experiment": "Test C postemergence, plant response rating", "conditions": "Avena fatua, post-emergence", "summary_of_the_method": "as §1"}, "[16]": {"system": "ragweed (common ragweed, Ambrosia elatior)", "experiment": "Test C postemergence, plant response rating", "conditions": "Ambrosia artemisiifolia, post-emergence", "summary_of_the_method": "as §1"}, "[17]": {"system": "ryegrass, Italian (Italian ryegrass, Lolium multiflorum)", "experiment": "Test C postemergence, plant response rating", "conditions": "Lolium multiflorum, post-emergence", "summary_of_the_method": "as §1"}, "[18]": {"system": "velvetleaf (Abutilon theophrasti)", "experiment": "Test C postemergence, plant response rating", "conditions": "Abutilon theophrasti, post-emergence", "summary_of_the_method": "as §1"}, "[19]": {"system": "wheat (winter wheat, Triticum aestivum)", "experiment": "Test C postemergence, plant response rating", "conditions": "Triticum aestivum, post-emergence", "summary_of_the_method": "as §1"}, "[20]": {"conditions": "62 g ai/ha, scale 0 to 100 (0 no effect, 100 complete control)"}, "[21]": {"conditions": "125 g ai/ha, scale 0 to 100 (0 no effect, 100 complete control)"}}, "data": [{"smiles": "O=C(CCC(F)(F)F)c1c(Cl)cccc1Oc1ncc(Cl)cn1", "note": "[Compound 107, 1-[2-chloro-6-[(5-chloro-2-pyrimidinyl)oxy]phenyl]-4,4,4-trifluoro-1-butanone]", "values": [{"measurement": "Plant response rating, Galium", "setting": "[1]; 31 g ai/ha, scale 0 to 100", "value": 60}, {"measurement": "Plant response rating, Galium", "setting": "[1]; 62 g ai/ha, scale 0 to 100", "value": 90}, {"measurement": "Plant response rating, Galium", "setting": "[1]; 125 g ai/ha, scale of 0 to 100", "value": 95}, {"measurement": "Plant response rating, Johnsongrass", "setting": "[2]; 31 g ai/ha, scale 0 to 100", "value": 30}, {"measurement": "Plant response rating, Johnsongrass", "setting": "[2]; 62 g ai/ha, scale 0 to 100", "value": 70}, {"measurement": "Plant response rating, Johnsongrass", "setting": "[2]; 125 g ai/ha, scale of 0 to 100", "value": 80}, {"measurement": "pest or weed control at 125 g/ha", "setting": "[3]; 125 g ai/ha, scale of 0 to 100", "value": 100, "unit": "%"}, {"measurement": "pest or weed control at 16 g/ha", "setting": "[3]; 16 g ai/ha, scale 0 to 100", "value": 65, "unit": "%"}, {"measurement": "pest or weed control at 31 g/ha", "setting": "[3]; 31 g ai/ha, scale 0 to 100", "value": 85, "unit": "%"}, {"measurement": "pest or weed control at 62 g/ha", "setting": "[3]; 62 g ai/ha, scale 0 to 100", "value": 100, "unit": "%"}, {"measurement": "Plant response rating, Pigweed, Palmer", "setting": "[4]; 31 g ai/ha, scale 0 to 100", "value": 100}, {"measurement": "Plant response rating, Pigweed, Palmer", "setting": "[4]; 62 g ai/ha, scale 0 to 100", "value": 100}, {"measurement": "Plant response rating, Pigweed, Palmer", "setting": "[4]; 125 g ai/ha, scale of 0 to 100", "value": 100}, {"measurement": "Plant response rating, Kochia", "setting": "[5]; 31 g ai/ha, scale 0 to 100", "value": 100}, {"measurement": "Plant response rating, Kochia", "setting": "[5]; 62 g ai/ha, scale 0 to 100", "value": 100}, {"measurement": "Plant response rating, Kochia", "setting": "[5]; 125 g ai/ha, scale of 0 to 100", "value": 100}, {"measurement": "Plant response rating, Surinam Grass", "setting": "[6]; 31 g ai/ha, scale 0 to 100", "value": 60}, {"measurement": "Plant response rating, Surinam Grass", "setting": "[6]; 62 g ai/ha, scale 0 to 100", "value": 98}, {"measurement": "Plant response rating, Surinam Grass", "setting": "[6]; 125 g ai/ha, scale of 0 to 100", "value": 98}, {"measurement": "Plant response rating, Poinsettia, Wild", "setting": "[7]; 31 g ai/ha, scale 0 to 100", "value": 10}, {"measurement": "Plant response rating, Poinsettia, Wild", "setting": "[7]; 62 g ai/ha, scale 0 to 100", "value": 40}, {"measurement": "Plant response rating, Poinsettia, Wild", "setting": "[7]; 125 g ai/ha, scale of 0 to 100", "value": 70}, {"measurement": "Plant response rating, Windgrass", "setting": "[8]; 31 g ai/ha, scale 0 to 100", "value": 100}, {"measurement": "Plant response rating, Windgrass", "setting": "[8]; 62 g ai/ha, scale 0 to 100", "value": 100}, {"measurement": "Plant response rating, Windgrass", "setting": "[8]; 125 g ai/ha, scale of 0 to 100", "value": 100}, {"measurement": "Plant response rating, Oat, Wild", "setting": "[9]; 31 g ai/ha, scale 0 to 100", "value": 5}, {"measurement": "Plant response rating, Oat, Wild", "setting": "[9]; 62 g ai/ha, scale 0 to 100", "value": 30}, {"measurement": "Plant response rating, Oat, Wild", "setting": "[9]; 125 g ai/ha, scale of 0 to 100", "value": 65}, {"measurement": "pest or weed control at 16 g/ha", "setting": "[10]; 16 g ai/ha, scale 0 to 100", "value": 5, "unit": "%"}, {"measurement": "pest or weed control at 31 g/ha", "setting": "[10]; 31 g ai/ha, scale 0 to 100", "value": 20, "unit": "%"}, {"measurement": "pest or weed control at 62 g/ha", "setting": "[10]; [20]", "value": 20, "unit": "%"}, {"measurement": "pest or weed control at 125 g/ha", "setting": "[10]; [21]", "value": 60, "unit": "%"}, {"measurement": "pest or weed control at 16 g/ha", "setting": "[11]; 16 g ai/ha, scale of 0 to 100", "value": 80, "unit": "%"}, {"measurement": "pest or weed control at 31 g/ha", "setting": "[11]; 31 g ai/ha, scale 0 to 100", "value": 90, "unit": "%"}, {"measurement": "pest or weed control at 62 g/ha", "setting": "[11]; [20]", "value": 98, "unit": "%"}, {"measurement": "pest or weed control at 125 g/ha", "setting": "[11]; [21]", "value": 100, "unit": "%"}, {"measurement": "pest or weed control at 16 g/ha", "setting": "[12]; 16 g ai/ha, scale of 0 to 100", "value": 80, "unit": "%"}, {"measurement": "pest or weed control at 31 g/ha", "setting": "[12]; 31 g ai/ha, scale 0 to 100", "value": 85, "unit": "%"}, {"measurement": "pest or weed control at 62 g/ha", "setting": "[12]; [20]", "value": 100, "unit": "%"}, {"measurement": "pest or weed control at 125 g/ha", "setting": "[12]; [21]", "value": 100, "unit": "%"}, {"measurement": "pest or weed control at 16 g/ha", "setting": "[13]; 16 g ai/ha, scale of 0 to 100", "value": 20, "unit": "%"}, {"measurement": "pest or weed control at 31 g/ha", "setting": "[13]; 31 g ai/ha, scale 0 to 100", "value": 60, "unit": "%"}, {"measurement": "pest or weed control at 62 g/ha", "setting": "[13]; [20]", "value": 80, "unit": "%"}, {"measurement": "pest or weed control at 125 g/ha", "setting": "[13]; [21]", "value": 95, "unit": "%"}, {"measurement": "pest or weed control at 16 g/ha", "setting": "[14]; 16 g ai/ha, scale of 0 to 100", "value": 5, "unit": "%"}, {"measurement": "pest or weed control at 31 g/ha", "setting": "[14]; 31 g ai/ha, scale 0 to 100", "value": 5, "unit": "%"}, {"measurement": "pest or weed control at 62 g/ha", "setting": "[14]; [20]", "value": 5, "unit": "%"}, {"measurement": "pest or weed control at 125 g/ha", "setting": "[14]; [21]", "value": 5, "unit": "%"}, {"measurement": "pest or weed control at 16 g/ha", "setting": "[15]; 16 g ai/ha, scale of 0 to 100", "value": 5, "unit": "%"}, {"measurement": "pest or weed control at 31 g/ha", "setting": "[15]; 31 g ai/ha, scale 0 to 100", "value": 40, "unit": "%"}, {"measurement": "pest or weed control at 62 g/ha", "setting": "[15]; [20]", "value": 35, "unit": "%"}, {"measurement": "pest or weed control at 125 g/ha", "setting": "[15]; [21]", "value": 45, "unit": "%"}, {"measurement": "pest or weed control at 16 g/ha", "setting": "[16]; 16 g ai/ha, scale of 0 to 100", "value": 25, "unit": "%"}, {"measurement": "pest or weed control at 31 g/ha", "setting": "[16]; 31 g ai/ha, scale 0 to 100", "value": 35, "unit": "%"}, {"measurement": "pest or weed control at 62 g/ha", "setting": "[16]; [20]", "value": 35, "unit": "%"}, {"measurement": "pest or weed control at 125 g/ha", "setting": "[16]; [21]", "value": 45, "unit": "%"}, {"measurement": "pest or weed control at 16 g/ha", "setting": "[17]; 16 g ai/ha, scale of 0 to 100", "value": 5, "unit": "%"}, {"measurement": "pest or weed control at 31 g/ha", "setting": "[17]; 31 g ai/ha, scale 0 to 100", "value": 35, "unit": "%"}, {"measurement": "pest or weed control at 62 g/ha", "setting": "[17]; [20]", "value": 20, "unit": "%"}, {"measurement": "pest or weed control at 125 g/ha", "setting": "[17]; [21]", "value": 50, "unit": "%"}, {"measurement": "pest or weed control at 16 g/ha", "setting": "[18]; 16 g ai/ha, scale of 0 to 100", "value": 60, "unit": "%"}, {"measurement": "pest or weed control at 31 g/ha", "setting": "[18]; 31 g ai/ha, scale 0 to 100", "value": 65, "unit": "%"}, {"measurement": "pest or weed control at 125 g/ha", "setting": "[18]; [21]", "value": 90, "unit": "%"}, {"measurement": "pest or weed control at 62 g/ha", "setting": "[18]; rate not given, scale 0 to 100, read-out: Plant response rating, Velvetleaf", "value": 75, "unit": "%"}, {"measurement": "plant injury at 16 g/ha", "setting": "[19]; 16 g ai/ha, scale of 0 to 100", "value": 5, "unit": "%"}, {"measurement": "plant injury at 31 g/ha", "setting": "[19]; 31 g ai/ha, scale 0 to 100", "value": 5, "unit": "%"}, {"measurement": "plant injury at 125 g/ha", "setting": "[19]; [21]", "value": 30, "unit": "%"}, {"measurement": "plant injury at 62 g/ha", "setting": "[19]; rate not given, scale 0 to 100, read-out: Plant response rating, Wheat", "value": 10, "unit": "%"}]}]}
